Several values for one entry are separate records, joined by “and”; a condition that tells them apart may be missing. Equal values may be shown once.
Key:
[1] = test system: striped bass (M. saxatilis) larvae; assay: Whole larva cortisol (RIA) in high-salinity stress; assay type: in vivo, Morone saxatilis; settings: for Body Cortisol at 30 min: 30 min high-salinity stress
Description: (§1) A group of 30 larvae was promptly transferred from the 10-liter bucket and immediately divided into three 1-liter beakers (ten larvae in each beaker) containing 25-ppt NaCl in dechlorinated fresh water. These hypersaline exposure conditions were established following preliminary tests in which approximately 50% of the larvae survived after 30 minutes exposure. Larval survival at 0, 15 and 30 minutes was recorded, and five larvae at each time interval were quickly removed and sacrificed on dry ice. Samples were washed with chilled distilled water, dried on paper towel, placed into test tubes and lyophilized to constant weight. The dry weight of each hypersaline-exposed larva was recorded to the nearest 0.1 mg. Samples were kept at −80° C. for subsequent whole larva cortisol analysis.
Cortisol was measured on whole larva using a solid-phase radioimmunoassay (RIA) Coat-A-Count Cortisol kit (DPC, Los Angeles, Calif.) following the manufacturer's procedure. Whole body cortisol was extracted from lyophilized larvae with ethyl ether (Barry et al. 1995). Extraction efficiency was determined by adding 1000 dpm 1,2,6,7-^3H-cortisol to each larva sample (specific activity −67.0 Ci mmol^−1, Amersham, Piscataway, N.J.). Cortisol extracts were reconstituted in 150 μl RIA buffer (included in the cortisol RIA kit). Cortisol concentration was then determined in 100-μl aliquots. Spiking recovery was measured in unknown samples using three spiking dilutions (1, 3, 7 ng, Cortisol Immulite, DPC, Los Angeles, Calif.). […] Two additional 20-μl aliquots were taken to determine ^3H-cortisol recovery.

[2] = test system: white bass, Morone chrysops larvae; assay: White bass larvae feeding (22 days) on enriched Artemia: growth, survival, total lipid; assay type: in vivo
Description: Larvae rearing. Newly hatched white bass, Morone chrysops larvae were obtained from AquaFutures Inc. (Turners Falls, Mass.). Larvae were grown for 17 days on rotifers, Bracionus plicatilis (2-5 rotifers/ml), which had been cultured on fresh water Chlorella (Martek BioSci. Inc. Columbia, Md.) paste (0.5 g/10^6 rotiferes/day). Larvae were randomly distributed in eighteen 60-liter larval rearing tanks at an initial density of 160 larvae per tank. The tanks were gently aerated and the water volume exchanged 1-2 times per day with biofiltered, U.V treated recirculating water. A 14:10 h light:dark photoperiod was maintained using fluorescent light tubes (Daylight; 40 watts; 800-1200 lux at the water surface). Temperature was maintained at 242° C. and salinity at 2-6 psu. Water quality was monitored daily and levels of total NH3, unionized NH3, NO2 and pH were maintained below 0.2 ppm, 0.001 ppm, 0.3 ppm and at 8.02, respectively. […]
Larvae were then fed twice daily with previously enriched Artemia nauplii, as described above, at a concentration of 50-100 nauplii/liter for the next 22 days.
[…] The dry weight of each larva was recorded to the nearest […] Nettler UMT2, Toledo, Switzerland). […] Survivorship was determined based on the initial and final count of larvae in each rearing tank.

[3] = test system: striped bass (M. saxatilis) larvae; assay: Salinity stress test, larval survival; assay type: in vivo, Morone saxatilis; settings: for Survival (%) at 30 min: 30 min high-salinity stress (25 psu)
Description: as §1

[4] = test system: striped bass (M. saxatilis) larvae; assay: Striped bass larvae feeding experiment (day 24-46) on Artemia enriched with DHA/AA emulsions: growth, survivorship; assay type: in vivo, Morone saxatilis; settings: day 46
Description: Newly hatched striped bass (M. saxatilis) larvae were obtained from the Aquaculture Research Center (ARC) of the Center of Marine Biotechnology (COMB), University of Maryland. Larvae were raised for 17 days post hatching on rotifers, Bracionus plicatilis (2-5 rotifers ml^−1), which were grown separately on fresh-water Chlorella sp. paste (0.5 g/10^6 rotifers/day, obtained from Martek BioSci. Inc. Columbia, Md.).
Seventeen days post-hatched larvae were randomly distributed in eighteen 60-liter rearing tanks at an initial density of 160 larvae per tank. The rearing tanks were gently aerated and the water volume exchanged 1-2 times per day with biofiltered, UV treated recirculating water. A 14:10 h light:dark photoperiod cycle was maintained using fluorescent lights (Daylight; 40 watts; 800-1200 lux at the water surface). Temperature was maintained at 24±2° C. and salinity at 2-6 psu. Water quality was monitored daily, and levels of total NH3, unionized N-3, NO2 and pH were maintained below 0.2 ppm, 0.001 ppm, 0.3 ppm and at 8.02, respectively, by partial replacement with fresh water.
Newly hatched Artemia nauplii were introduced to the larvae from day 17 until day 24 (once a day at 20-40 nauplii 1^−1), while rotifer concentration was reduced gradually to a complete removal by day 24.
Larvae then were fed twice daily with Artemia nauplii, enriched with nine dietary emulsions containing varying proportions of DHA and AA.
A 3×3 factorial design with two nutritional factors (DHA and AA) at three levels each and in duplicate blocks was used. This experimental design allowed for the simultaneous study of the effect of increasing dietary levels of DHA and AA either alone or in various combination of both fatty acids. Nine different emulsions having varying proportions of DHA-rich triacylglycerols from heterotrophically grown algae, Crypthecodinium spp. (0, 11.1 and 21.6 mg g^−1 lipids) and AA-rich triacylglycerols (3, 14.5 and 24.8 mg g^−1 lipids) from fungi, Mortierella spp. (DHASCO and ARASCO, Martek BioSci. Columbia, Md.) were formulated.
A mixture of 2% alginic acid, 2% polyoxyethylene sorbitan mono-oleate (Tween-80), 1% ascorbic acid, 1% vitamin-E, 1% silicon based anti-foaming agent (all mad e by Sigma Co. MO) and 5% soy lecithin (80% phosphatidylcholine, Archer Daniels Midland Co., Decatur, Ill.) were added to the oils (all additions made by weight). […]
Feeding experiments were terminated on day 46. […] Survivorship was determined based on the initial and final count of larvae in each rearing tank. […]

[5] = test system: Gilthead sea bream, Sparus aurata larvae; assay: Gilthead sea bream larvae fed enriched rotifers and Artemia; assay type: in vivo; settings: 5 to 34-day-old sea bream larvae; DHA enriched vs no DHA containing rotifers and Artemia
Description: Gilthead sea bream, Sparus aurata and European sea bass, Dicentrarchus labrax larvae originated from spawns of locally maintained broodstock were stocked over three days with two-day-old larvae (40,000 larvae tank^−1). Sea bream larvae from day 3 to day 20 were fed twice daily rotifers that were previously enriched on first phototrophically grown Nannochloropsis sp. and then on either Algamac-2000 or PL-Cr. Rotifer and Artemia enrichments and larval feeding were carried out as described in Koven et al. 2001. Sea bream larval growth and survival as a function of enrichment materials was recorded on day 34. European sea bass larvae were maintained in darkness until day-8 when they started feeding on non-enriched Artemia nauplii until day 11. From day-11 to day-21, the larvae were fed twice daily under low illumination (approximately 100-lux) Algamac-2000 or PL-Cr enriched Artemia nauplii.
Total lipids were extracted from triplicate samples. Lipid weight was determined gravimetrically (Mettler UMT2 ±0.1 mg, Toledo, Switzerland) and expressed as percent DW of sample. Fatty acid methyl esters (FAME) were prepared from the whole lipid extract, and the lipid classes separated, saponified and transmethylated as described by Harel et al. (2000).

[6] = dietary DHA 0.0 mg g^−1 D.W, pooled over AA levels

CCCCC/C=C\C/C=C\C/C=C\C/C=C\CCCC(=O)O [AA, arachidonic acid]
Body Cortisol at 0 min ([1]; dietary AA 3.0 mg g^−1 D.W): 106 ± 10^B pg mg^−1 D.W | Body Cortisol at 30 min ([1]; dietary AA 3.0 mg g^−1 D.W): 171 ± 18^A pg mg^−1 D.W | Body Cortisol at 0 min ([1]; dietary AA 14.5 mg g^−1 D.W): 142 ± 15^A pg mg^−1 D.W | Body Cortisol at 30 min ([1]; dietary AA 14.5 mg g^−1 D.W): 192 ± 27^A pg mg^−1 D.W | Body Cortisol at 0 min ([1]; dietary AA 24.8 mg g^−1 D.W): 122 ± 10^AB pg mg^−1 D.W | Body Cortisol at 30 min ([1]; dietary AA 24.8 mg g^−1 D.W): 167 ± 20^A pg mg^−1 D.W | Increase in basal cortisol levels ([1]; increasing dietary AA from 3 to 14.5 mg AA g^−1 lipids): ~40% | Larval growth (weight) ([2]; 25.4% AA of enrichment total fatty acids, 11.1% DHA): 13.1±1.5 mg dry weight | Larval growth (weight) ([2]; no dietary AA, 11.1% DHA of total fatty acids in enrichment lipids): 21.3±1.8 mg dry weight | Mortality after 30 min of exposure ([3]; 3 mg g^−1 lipids dietary AA (AA deficient larvae), 25-psu): over 80% | Survival (%) at 30 min ([3]; dietary AA 3.0 mg g^−1 D.W, pooled over DHA levels): 19.5 ± 1.8^B % | Survival (%) at 30 min ([3]; dietary AA 14.5 mg g^−1 D.W): 61.8±4.2% and 61.8 ± 4.2^A % | Survival (%) at 30 min ([3]; dietary AA 24.8 mg g^−1 D.W): 48.7 ± 5.0^A % | Larval weight ([4]; 3-mg AA g^−1 lipids): 19.4 mg dry weight | Larval weight ([4]; 14.5-mg AA g^−1 lipids): 23.7 mg dry weight

CC/C=C\C/C=C\C/C=C\C/C=C\C/C=C\C/C=C\CCC(=O)O [DHA, docosahexaenoic acid]
Body Cortisol at 0 min [1, 6]: 123 ± 8^A pg mg^−1 D.W | Body Cortisol at 30 min ([1]; dietary DHA 0.0 mg g^−1 D.W): 155 ± 16^B pg mg^−1 D.W | Body Cortisol at 0 min ([1]; dietary DHA 11.1 mg g^−1 D.W): 128 ± 16^A pg mg^−1 D.W | Body Cortisol at 30 min ([1]; dietary DHA 11.1 mg g^−1 D.W): 182 ± 22^AB pg mg^−1 D.W | Body Cortisol at 0 min ([1]; dietary DHA 21.6 mg g^−1 D.W): 118 ± 11^A pg mg^−1 D.W | Body Cortisol at 30 min ([1]; dietary DHA 21.6 mg g^−1 D.W): 193 ± 26^A pg mg^−1 D.W | Survival (%) at 30 min [3, 6]: 30.7 ± 4.9^B % | Survival (%) at 30 min ([3]; dietary DHA 11.1 mg g^−1 D.W): 48.3 ± 7.2^AB % | Survival (%) at 30 min ([3]; dietary DHA 21.6 mg g^−1 D.W): 50.99 ± 5.8^A % | Improvement of larval growth [5]: ≤ 40% | Larval weight (mean) ([4]; 21.6-mg DHA g^−1 lipids): 20.4 mg dry weight | Larval weight (mean) ([4]; zero dietary DHA): 22.7 mg dry weight

From patent US7067145B2, “Use of arachidonic acid for enhanced culturing of fish larvae and broodstock” (University of Maryland Biotechnology Institute, priority 2000, dated 2006)
